Laboratory results published in the supplement of paper PMC8967900.

What was measured:
Assay in all cases: selective drug sensitivity score (sDSS, relative to normal bone marrow) (sDSS (score)); higher = more potent and effective on the cell line relative to normal bone marrow cells
Conditions in all cases: 72 h
CCRF-CEM = system: CCRF-CEM
MOLT-14 = system: MOLT-14
KARPAS-45 = system: KARPAS-45
NALL-1 = system: NALL-1
PF-382 = system: PF-382
COG-LL-355h = system: COG-LL-355h
RPMI-8402 = system: RPMI-8402
COG-LL-317 = system: COG-LL-317
MHH-CALL-4 = system: MHH-CALL-4
JURKAT = system: JURKAT
HAL-01 = system: HAL-01
TANOUE = system: TANOUE
MOLT-16 = system: MOLT-16
MHH-CALL-3 = system: MHH-CALL-3
RCH-ACV = system: RCH-ACV
LC4-1 = system: LC4-1
KOPN-8 = system: KOPN-8
ALL-SIL = system: ALL-SIL
P30-OHKUBO = system: P30-OHKUBO
SEM cells = system: SEM cells
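Also: ALL cell lines in 384-well plates, five doses spanning 10,000-fold, each plate scaled between vehicle and 100 µmol/L benzalkonium chloride controls, sDSS an adapted area-under-curve metric.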

Structure (SMILES) | selective drug sensitivity score (CCRF-CEM) | selective drug sensitivity score (MOLT-14) | selective drug sensitivity score (KARPAS-45) | selective drug sensitivity score (NALL-1) | selective drug sensitivity score (PF-382) | selective drug sensitivity score (COG-LL-355h) | selective drug sensitivity score (RPMI-8402) | selective drug sensitivity score (COG-LL-317) | selective drug sensitivity score (MHH-CALL-4) | selective drug sensitivity score (JURKAT) | selective drug sensitivity score (HAL-01) | selective drug sensitivity score (TANOUE) | selective drug sensitivity score (MOLT-16) | selective drug sensitivity score (MHH-CALL-3) | selective drug sensitivity score (RCH-ACV) | selective drug sensitivity score (LC4-1) | selective drug sensitivity score (KOPN-8) | selective drug sensitivity score (ALL-SIL) | selective drug sensitivity score (P30-OHKUBO) | selective drug sensitivity score (SEM cells)
C=C1C[C@@H]2[C@H](CC[C@]3(C)C(=O)CC[C@@H]23)[C@@]2(C)C=CC(=O)C=C12 [Exemestane] (top concentration 10000 nM) | -0.9 | 1 | -1.2 | -1.9 | -0.4 | 1 | -1.9 | 0 | -1.9 | -1.4 | 3.8 | -0.7 | -1.7 | 0.1 | 0.4 | 3.6 | 5.8 | -1.9 | -0.4 | -1.9
COc1cc2c(Oc3ccc(NC(=O)C4(C(=O)Nc5ccc(F)cc5)CC4)cc3F)ccnc2cc1OCCCN1CCOCC1 [Foretinib] (top concentration 1000 nM) | 0.64 | 1.94 | 2.44 | 1.74 | 0.34 | 0.34 | 0.34 | 0.44 | 1.64 | -4.36 | 3.34 | -4.46 | 0.24 | -3.56 | 0.44 | 2.04 | 7.84 | 13.6 | 0.54 | 20.9
COc1cc(Nc2ncc(F)c(Nc3ccc4c(n3)N(COP(=O)(O)O)C(=O)C(C)(C)O4)n2)cc(OC)c1OC [Fostamatinib] (top concentration 2500 nM) | -2.34 | -0.34 | 4.56 | -2.64 | -1.14 | 1.96 | -0.24 | -2.84 | -2.74 | -2.14 | 0.76 | -1.94 | -2.84 | -1.44 | 7.96 | 2.56 | 4.66 | 1.96 | 2.96 | 9.96
CC1(C)OCCn2c1nc1c(N3CCOCC3)nc(-c3cnc(N)nc3)nc12 [GDC-0084] (top concentration 10000 nM) | 6.9 | 1.3 | 5.1 | 8.7 | 5.6 | 9 | 5.1 | 3.1 | 10.7 | 2.9 | 11 | -4.9 | 6.8 | 7 | 20.8 | 4.2 | 13.2 | 4.8 | 10.9 | 14.4
CC(C)c1cc(-c2n[nH]c(=O)n2-c2ccc3c(ccn3C)c2)c(O)cc1O [Ganetespib] (top concentration 1000 nM) | 2.04 | 1.74 | -0.26 | -1.86 | 1.64 | 1.34 | -1.66 | 8.64 | -0.56 | -2.46 | 0.74 | -8.36 | 4.74 | 6.64 | 3.44 | 1.44 | 10.1 | 1.14 | 2.24 | 1.24
CCc1nc(C(N)=O)c(Nc2ccc(N3CCC(N4CCN(C)CC4)CC3)c(OC)c2)nc1NC1CCOCC1 [Gilteritinib] (top concentration 1000 nM) | -2.42 | -2.52 | -2.12 | -2.52 | -2.52 | 2.38 | -1.32 | -2.52 | -2.52 | -2.52 | -1.82 | -2.52 | -2.52 | -2.52 | 2.58 | 0.38 | 3.08 | -2.52 | 7.38 | 4.38
CCN(CC)Cc1ccc2cc(COC(=O)Nc3ccc(C(=O)NO)cc3)ccc2c1 [Givinostat] (top concentration 1000 nM) | 3.6 | 6.8 | 11.1 | -0.4 | 2.9 | 5 | 3.9 | 4.1 | 3.4 | 0.9 | -2.4 | -4.5 | 5.1 | 15.6 | 9.8 | 5.5 | 13.5 | 8.6 | 3.7 | 4.4
COCCNCc1ccc(-c2cc3nccc(Oc4ccc(NC(=S)NC(=O)Cc5ccc(F)cc5)cc4F)c3s2)nc1 [Glesatinib] (top concentration 2500 nM) | -1.06 | 0.54 | 2.34 | 2.94 | -0.56 | 0.54 | 0.54 | 0.64 | 0.14 | -1.96 | 2.44 | -1.96 | -1.96 | -0.36 | 3.74 | 1.94 | 6.14 | 10.4 | -0.76 | 14.1
C=CC(=O)N1CCC[C@@H](n2nc(-c3ccc(Oc4ccccc4)cc3)c3c(N)ncnc32)C1 [Ibrutinib] (top concentration 1000 nM) | 0.1 | 2.6 | 3.4 | 0 | 0 | 0 | 1.1 | 0 | 0 | 0 | 1.9 | 0 | 2 | 0 | 15 | 1 | 2.7 | 0 | 1.2 | 0
CC[C@H](Nc1ncnc2[nH]cnc12)c1nc2cccc(F)c2c(=O)n1-c1ccccc1 [Idelalisib] (top concentration 10000 nM) | 3.64 | -2.16 | 1.54 | 3.54 | -0.36 | 3.14 | -0.76 | 0.04 | 4.04 | -1.76 | 16.1 | -2.16 | 1.24 | 9.44 | 23.8 | -0.16 | 5.64 | 0.04 | 7.94 | 3.54
O=C(Nc1ccncc1)C(=O)c1cn(Cc2ccc(Cl)cc2)c2ccccc12 [Indibulin] (top concentration 10000 nM) | 6.04 | 14.1 | 6.84 | 9.94 | 4.74 | -1.46 | 5.84 | 6.24 | 1.54 | 15.1 | 5.34 | -2.76 | 16 | 1.64 | 14.6 | 17.3 | 17.9 | 23.4 | 6.14 | 11.9
CC(C)C[C@H](NC(=O)CNC(=O)c1cc(Cl)ccc1Cl)B(O)O [Ixazomib] (top concentration 1000 nM) | 10.5 | 4.96 | 5.96 | 6.56 | 7.86 | 6.56 | 6.56 | 6.26 | 7.96 | 4.86 | 8.26 | -6.64 | 7.06 | 8.96 | 7.36 | 6.46 | 6.26 | 7.56 | 6.66 | 13.1
CC(C)NC(=O)COc1cccc(-c2nc(Nc3ccc4[nH]ncc4c3)c3ccccc3n2)c1 [KD025] (top concentration 5000 nM) | -0.66 | -3.36 | -2.76 | 2.54 | 1.04 | -0.86 | -2.36 | -5.36 | 1.04 | -3.06 | -3.26 | -5.36 | 0.64 | -5.36 | -2.16 | 6.44 | 0.74 | 1.24 | 1.84 | -2.96
Nc1cccc2c1CN(C1CCC(=O)NC1=O)C2=O (stereo not given) [Lenalidomide] (top concentration 100000 nM) | 0.92 | 0.12 | -2.28 | -2.28 | -2.28 | 2.82 | -2.08 | 2.92 | 5.42 | -2.28 | 4.22 | -2.28 | -0.88 | -2.28 | 4.42 | -0.58 | 1.02 | -0.88 | -2.28 | 3.82
Sc1ncnc2nc[nH]c12 [Mercaptopurine] (top concentration 10000 nM) | 14.1 | 10.9 | 17.1 | 10.7 | 9.2 | 0.5 | 9.2 | 23.7 | 11.1 | 10.3 | 12.4 | 7.2 | 16.9 | 0 | 14.2 | 17.1 | 14.9 | 14.8 | 8.9 | 12.6
Cc1ccc(C(=O)Nc2ccc(Oc3cc4cnn(C)c4cc3-c3cn[nH]c3)c(F)c2)c(=O)n1-c1ccc(F)cc1 [Merestinib] (top concentration 1000 nM) | -0.62 | -0.62 | -0.62 | 8.28 | -0.62 | -0.62 | -0.62 | -0.62 | -0.42 | -0.62 | 5.68 | -0.62 | -0.62 | -0.62 | 1.08 | -0.62 | -0.62 | 0.28 | 0.88 | 19.8
CNC(=O)c1nn(C)c2c1C(C)(C)Cc1cnc(Nc3ccc(N4CCN(C)CC4)cc3)nc1-2 [Milciclib] (top concentration 10000 nM) | 2.04 | 7.04 | 5.04 | -0.86 | 4.84 | 5.44 | 5.54 | 8.94 | -0.06 | 4.34 | 5.94 | -3.76 | 6.44 | -5.26 | 14.3 | 5.94 | 5.84 | 10.9 | 4.94 | 10
N#CCNC(=O)c1ccc(-c2ccnc(Nc3ccc(N4CCOCC4)cc3)n2)cc1 [Momelotinib] (top concentration 10000 nM) | -2.52 | -3.92 | 0.18 | -6.72 | -3.42 | -0.92 | -0.82 | -5.32 | -1.12 | -5.12 | -5.22 | -9.62 | 0.28 | -9.42 | 5.78 | -4.62 | -1.62 | -1.82 | 1.58 | 1.48
